Measured values from patent EP4324461A1, “(E)-N-CINAMOYLAMINOALKANOLES WITH MELANOGENESIS INHIBITORY ACTIVITY” (UNIWERSYTET JAGIELLONSKI, priority 2022, dated 2024).
Several values for one entry are separate records, joined by “and”; a condition that tells them apart may be missing. Equal entries are not always repeated. Where two headings read alike, the source gives them in different places.

Tests used:
[1] = test system: B16-F10 murine melanoma cell line; assay: Cytotoxicity in B16-F10 cells (MTT); assay type: cell-based; details: 48 h
Description: In order to determine safe doses of compounds for testing the inhibition of melanogenesis in a murine melanoma cell line, cytotoxicity tests were performed. Cytotoxicity was determined by the colorimetric method using MTT ([3-(4,5-dimethyl-2-thiazolyl)-2,5-diphenyl-2H-tetrazolium bromide, Sigma M5655). For this purpose, cells were transferred to 96-well plates in an amount of 5000/well. After 24 h of culture in an incubator in F 10-Ham medium with 1% FBS, the tested compounds at various concentrations were added to the wells together with fresh medium. DMSO was added to the medium in a negative control. The MTT test was performed after further culture for 48 h. Then the medium was removed and the formed formazan crystals were dissolved in DMSO. The absorbance was measured at 570 nm in a plate reader and the result was compared to the control (DMSO), which was 100%. The percentage of viability was calculated using the formula: [AT/AC^∗100], where AT is the absorbance of the test sample, AC - absorbance of the control sample. Table 3. Results of inhibiting the activity of monophenolase […] tyrosinase and cytotoxicity testing in B16F10 cells for the described compounds.

[2] = Lipophilicity coefficient RM0 by reversed phase thin layer chromatography; assay type: physicochemical; details: RP-18 TLC, methanol / 100 mM phosphate buffer pH = 7.4
Description: Confirmation of the identity and purity of the obtained compounds consisted in the registration and interpretation of ^1H NMR and ^13C NMR spectra (the spectra were recorded using an ECZR 500 MHz (JEOL) series FT-NMR spectrophotometer), as well as the registration and interpretation of LC-MS spectra (the spectra were recorded using Acquita UPLC system (Waters) coupled with a Waters TQD mass spectrometer). The melting point was measured using the open capillary method in the IA9300 device (Electrothermal). The lipophilicity coefficient RM0 was determined by reversed phase thin layer chromatography. In the study, aluminum plates 20x20 cm covered with modified silica gel RP-18 F254 (Merck) were used as the solid phase. The mobile phase consisted of solutions of methanol and 100 mM phosphate buffer (pH = 7.4), characterized by a variable methanol content ranging from 95 to 65% (v/v). The tested compounds were dissolved in methanol to obtain solutions with a concentration of 1 mg/mL. Then, 5 µL of the solutions prepared in this way were transferred to the starting line on aluminum plates, which were then placed in chromatographic chambers previously saturated with mobile phase vapors for at least 1 hour. All activities, including the development of chromatograms, were carried out at room temperature. After developing the chromatograms to approximately 1-2 cm from the end of the plate, the plates were dried and then the distance traveled by the tested compounds was visualized under UV light (λ = 254 nm). The experiment was performed in duplicate for the specified conditions. For all samples, Rf was calculated according to the formula Rf = a/b, where a - the distance traveled by the tested compound, b - the distance traveled by the mobile phase. Then, the RM parameter was calculated for all samples according to the formula RM = log(1/Rf - 1), obtaining a linear relationship between the RM values and the methanol concentration in the mobile phase. The logP coefficient was also calculated using the following computer programs: ACD/ChemSketch 2020.1.2 and ChemDraw 20.0.0.41. Table 2. The physicochemical data of the compounds are presented below

[3] = test system: tyrosinase from mushroom; assay: Inhibition of commercial mushroom tyrosinase (L-DOPA or L-tyrosine substrate); assay type: biochemical
Description: The following substrates were used for the enzymatic reaction: L-tyrosine and L-3,4-dihyroxyphenylalanine (L-DOPA). Both substrates were used in independent experiments. According to the literature, the use of L-DOPA enables the assessment of tyrosinase diphenolase activity, and L-tyrosine - the tyrosinase monophenolase activity. The determinations were performed in 96-well plates, in each well there was placed: 170 µL or 127.5 µL of 50 mM phosphate buffer (pH = 6.8) with tyrosinase (1U/well or 3U/well) and 10 µL of a solution of the tested compound in DMSO (the final concentration in the well was 500 µM, 250 µM or 125 µM). The negative control used 10 µL of pure solvent (DMSO). To initiate the reaction, an appropriate substrate was added: L-tyrosine (62.5 µL of solution in phosphate buffer) or L-DOPA (20 µL of solution in phosphate buffer). After a 25-minute incubation, the absorbance was measured at 475 nm using a microplate reader. The percentage of inhibition of tyrosinase activity was calculated using the formula: [(AC -AT)/AC] × 100, where AC - is the absorbance of the negative control, AT - is the absorbance of the sample containing the tested compound.

[4] = test system: S. typhimurium TA100; assay: Ames microplate test, TA100; assay type: cell-based, Salmonella typhimurium; details: positive control (PC), 125 µg/mL, +S9;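 also: reference level is the mean solvent-control yellow wells plus SD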
Description: (§1) Bacteria were grown overnight in growth medium.
(§2) Table 9. Ames microplate test results.

[5] = test system: S. typhimurium TA98; assay: Ames microplate test, TA98; assay type: cell-based, Salmonella typhimurium; details: positive control (PC), 0.5 µg/mL, +S9;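 also: reference level is the mean solvent-control yellow wells plus SD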
Description: as §1, §2

[6] = L-DOPA, read-out: Tyrosinase inhibition with L-DOPA, IC50
[7] = L-tyrosine, read-out: Tyrosinase inhibition with L-tyrosine, IC50

| Compound | Cytotoxicity study in B16F10 cells % viability ([1]; 150 µM) | Cytotoxicity study in B16F10 cells % viability ([1]; 200 µM) | Cytotoxicity study in B16F10 cells % viability ([1]; 250 µM) | RM0 [2] | Tyrosinase inhibition with L-DOPA [%] ([3]; L-DOPA) | Tyrosinase inhibition with L-tyrosine [%] ([3]; L-tyrosine) | IC50 [3, 6] | IC50 [3, 7] | Cytotoxicity study in B16F10 cells % viability ([1]; 12.5 µM) | Cytotoxicity study in B16F10 cells % viability ([1]; 25 µM) | Cytotoxicity study in B16F10 cells % viability ([1]; 50 µM) | Tyrosinase inhibition with L-DOPA [%] ([3]; L-DOPA, 125 µM) | Tyrosinase inhibition with L-tyrosine [%] ([3]; L-tyrosine, 125 µM) | Increase in the number of yellow wells compared to the reference level [4] | Increase in the number of yellow wells compared to the reference level [5] |
| --- | --- | --- | --- | --- | --- | --- | --- | --- | --- | --- | --- | --- | --- | --- | --- |
| CCC(O)CNC(=O)/C=C/c1ccc(C)cc1 (centres unmarked) [Compound A-63, (2E)-N-(2-hydroxybutyl)-3-(4-methylphenyl)prop-2-enamide] | 90.2% | 87.3% | 87.4% | 2.39 | 21.19±1.26% (500 µM) | 30.22±10.22% (500 µM) |  |  |  |  |  |  |  |  |  |
| Cc1ccc(/C=C/C(=O)NC(C)CO)cc1 (centres unmarked) [Compound A-69, (2E)-N-(1-hydroxypropan-2-yl)-3-(4-methylphenyl)prop-2-enamide] | 96.6% | 101.3% | 97.5% | 2.17 | 22.96±6.64% (500 µM) | 4.40±7.15% (500 µM) |  |  |  |  |  |  |  |  |  |
| CCC(CO)NC(=O)/C=C/c1ccc(Cl)cc1 (centres unmarked) [Compound A-01, (2E)-3-(4-chlorophenyl)-N-(1-hydroxybutan-2-yl)prop-2-enamide] | 73.6% | 93.2% | 85.4% | 2.43 | 43.99±2.60% (500 µM) | 61.80±0.40% (500 µM) | 734 µM | 284 µM |  |  |  |  |  |  |  |
| CCC(CO)NC(=O)/C=C/c1ccc(C)cc1 (centres unmarked) [H-409/21, (2E)-N-(1-hydroxybutan-2-yl)-3-(4-methylphenyl)prop-2-enamide] | 83.2% | 95.3% | 103.4% | 2.49 | 21.81±2.31% (500 µM) | 15.31±8.27% (500 µM) |  |  |  |  |  |  |  |  |  |
| CCC(CO)NC(=O)/C=C/c1ccc(Cl)cc1Cl (centres unmarked) [H-285/20, (2E)-3-(2,4-dichlorophenyl)-N-(1-hydroxybutan-2-yl)prop-2-enamide] | 84.2% | 74.8% | 24.6% | 3.08 | 0.21±5.64% (500 µM) | 14.56±1.63% (500 µM) |  |  |  |  |  |  |  |  |  |
| O=C(/C=C/c1ccccc1)NCCO [H-429/21, (2E)-N-(2-hydroxyethyl)-3-phenylprop-2-enamide] | 86.4% | 79.8% | 80.9% | 1.27 | 30.54±1.20% (500 µM) | 21.00±8.83% (500 µM) |  |  |  |  |  |  |  |  |  |
| O=C(/C=C/c1ccc(Cl)cc1)NCCCCO [H-331/21, (2E)-3-(4-chlorophenyl)-N-(4-hydroxybutyl)prop-2-enamide] | 32.7% | 51.9% | 52.7% | 2.14 | 64.31±0.21% (500 µM) | 82.50±0.87% (500 µM) | 153 µM | 103 µM | 49.0% | 47.8% | 54.2% |  |  |  |  |
| O=C(/C=C/c1ccc(Cl)cc1Cl)NCCCCO [H-298/20, (2E)-3-(2,4-dichlorophenyl)-N-(4-hydroxybutyl)prop-2-enamide] | 46.5% | 40.6% | 37.4% | 2.78 | 11.16±2.78 (500 µM) % | 20±2.96% (500 µM) |  |  |  |  |  |  |  |  |  |
| O=C(/C=C/c1ccc(Cl)cc1)NCCCCCCO [H-426/21, (2E)-3-(4-chlorophenyl)-N-(6-hydroxyhexyl)prop-2-enamide] | 30.3% | 28.2% | 28.3% | 3.02 |  |  |  |  |  |  |  | 30.66±1.82% (125 µM) | 39.89±3.21% (125 µM) |  |  |
| O=C(/C=C/c1ccccc1)NCCCO [KM-634, (2E)-N-(3-hydroxypropyl)-3-phenylprop-2-enamide] | 76.1% | 70.5% | 63.3% | 1.60 | 34.23±2.32% (500 µM) | 27.41±2.24% (500 µM) |  |  |  |  |  |  |  |  |  |
| O=C(/C=C/c1ccccc1)NCCCCO [Compound A-43, (2E)-N-(4-hydroxybutyl)-3-phenylprop-2-enamide] | 108.9% | 105.7% | 103.2% | 1.60 | 34.55±4.18% (500 µM) | 35.50±1.37% (500 µM) | 1560 µM | 1030 µM |  |  |  |  |  |  |  |
| Cc1ccc(/C=C/C(=O)NCCCO)cc1 [H-410/21, (2E)-N-(3-hydroxypropyl)-3-(4-methylphenyl)prop-2-enamide] | 88.8% | 90.7% | 79.8% | 2.04 | 16.99±5.66% (500 µM) | 0.51±5.40% (500 µM) |  |  |  |  |  |  |  |  |  |
| Nc1ccc2cc3ccccc3cc2c1 [Compound 2-AA, 2-aminoanthracene, reference compound] |  |  |  |  |  |  |  |  |  |  |  |  |  | 4.00 | 24.00 and 15.03 |
